Columns and labels:
IFN-γ [1] = assay: Interferon-γ production by purified T lymphocytes (Example 3); format: cell-based, human; details: mean of 3 donors
Method: PBMC from three healthy donors are purified by density gradient […] (LymphoPrep). The T lymphocytes are obtained from 15.10^6 PBMC incubated for 20 to 30 minutes in a waterbath at 37° C. with 0.8 ml of a mixture of LymphoKwik® (One Lambda, Inc., CA, USA). This latter substance is a mixture of complement and specific antibody for antigen units of the cell membrane which lyses the unwanted cells (B lymphocytes, monocytes, etc.). The cells are centrifuged and then washed twice.
These cultures are treated with various concentrations of ADA.
(§1) In Examples 3 and 4, the results are stated as a percentage taking the medium without ADA as 100%. The concentrations corresponding to 100% are respectively 90,000 pg/ml for IL-2, 1100 pg/ml for IL-5, 1900 pg/ml for IFN-γ and 2870 pg/ml for TNF-α. The results are the mean of independent ELISA assays.

IL-2 [2] = assay: IL-2 production by purified CD4 T lymphocytes stimulated by PMA + anti-CD28 (Example 4); format: cell-based, human; details: for IL-2 in % relative to control: purified CD4 T lymphocytes, PMA + anti-CD28, mean of 2 donors
Method: (§2) Purified CD4 T lymphocytes (90% purity) stimulated by PMA (phorbol myristate acetate)+anti-CD28 antibodies from healthy donors are treated with various concentrations of ADA.
as §1

IL-5 = IL-5 production by purified CD4 T lymphocytes stimulated by PMA + anti-CD28 (Example 4); format: cell-based, human; details: for IL-5 in % relative to control: purified CD4 T lymphocytes, PMA + anti-CD28, 1 donor
Method: as §2, §1

IFN-γ [3] = assay: Interferon-γ production by purified CD4 T lymphocytes stimulated by PMA + anti-CD28 (Example 4); format: cell-based, human; details: for IFN-γ in % relative to control: purified CD4 T lymphocytes, PMA + anti-CD28, mean of 2 donors
Method: as §2, §1

IL-2 [4] = assay: In vivo serum IL-2 release after anti-CD3 145-2C11 mAb (Example 5); design: species or system BALB/C mice; details: ADA 100 mg/kg single injection one day before 145-2C11 mAb; sera at 2, 4, 8, 24 h; FIG. 1
Method: (§3) A single intraparenteral injection of azodicarbon-amide (ADA) at a dose of 100 mg/kg bodyweight or corresponding carrier is made into BALB/C mice (Harlan, Zeist, Netherlands) one day before intraparenteral inoculation of 25 μg of hamster 145-2C11 mAb, an anti-mouse CD3 mAb which brings about massive in vivo activation of polyclonal T cells, resulting in systemic cytokine release. Sera are collected 2, 4, 8 and 24 hours after the anti-CD3 treatment and the cytokine (IL-2, IL-4) levels are determined by an ELISA test (Genzyme).
(§4) FIGS. 1 and 2 are graphs showing, on the y-axis, the quantities of IL-2 and IL-4 in the serum as a mean of 5 test animals. […] The empty bars show the results obtained with the carrier and the shaded bars show those obtained with prior ADA treatment.

IL-4 = assay: In vivo serum IL-4 release after anti-CD3 145-2C11 mAb (Example 5); design: species or system BALB/C mice; details: ADA 100 mg/kg single injection one day before 145-2C11 mAb; sera at 2, 4, 8, 24 h; FIG. 2
Method: as §3, §4

IFN-γ [5] = assay: IFN-γ production by splenocytes of ovalbumin-sensitised rats treated orally (Example 8); format: in vivo, Brown-Norway rats; details: ADA orally 500 and 1000 mg/kg twice daily, FIG. 4
Method: Brown-Norway rats are actively sensitised with 5% ovalbumin in 0.9% NaCl. 24 hours later, bronchial reactivity to metacholine is measured on the anaesthetised rats. Immediately measurement of bronchial reactivity is complete, splenocytes are taken from these rats and cultured to determine IFN-γ production by these cells.
ADA is administered 24 hours before the beginning of the ovalbumin sensitisation phase and daily throughout the duration of the test, except for the days of the measurements. The ADA is administered orally in suspension in 1% methylcellulose at a twice daily dosage of 500 mg/kg and 1000 mg/kg bodyweight.
The quantities of IFN-γ are plotted on the y-axis in pg/mg of protein. On the x-axis, the empty bars A to F correspond to the following experiments: […]

[6] = system: Peripheral mononuclear blood cells (PMBC); assay: Cytotoxic effects on the PBMC cultures of Examples 1 and 2; format: cell-based, human; details: at the ADA concentrations reducing cytokine production in Examples 1 and 2
[7] = 20 μg/ml of ADA, donors of Examples 3 and 4

## NC(=O)N=NC(N)=O [ADA, azodicarbon-amide]
IFN-γ [1]; ADA 1 μg/ml
  IFN-γ in % relative to control: 82 % relative to control
IFN-γ [1]; ADA 5 μg/ml
  IFN-γ in % relative to control: 34 % relative to control
IFN-γ [1]; ADA 10 μg/ml
  IFN-γ in % relative to control: 14 % relative to control
IFN-γ [1]; ADA 20 μg/ml
  IFN-γ in % relative to control: 4 % relative to control
IL-2 [2]; ADA 1 μg/ml
  IL-2 in % relative to control: 82 % relative to control
IL-2 [2]; ADA 5 μg/ml
  IL-2 in % relative to control: 30 % relative to control
IL-2 [2]; ADA 10 μg/ml
  IL-2 in % relative to control: 18 % relative to control
IL-2 [2]; ADA 20 μg/ml
  IL-2 in % relative to control: 10 % relative to control
IL-2 [2]; concentrations lower than 20 μg/ml of ADA, Examples 3 and 4
  secretion of IL-2 by lymphocytes: Even lower concentrations inhibit
IL-5; [7]
  production of IL-5: inhibited
IL-5; ADA 1 μg/ml
  IL-5 in % relative to control: 69 % relative to control
IL-5; ADA 5 μg/ml
  IL-5 in % relative to control: 45 % relative to control
IL-5; ADA 10 μg/ml
  IL-5 in % relative to control: 43 % relative to control
IL-5; ADA 20 μg/ml
  IL-5 in % relative to control: 38 % relative to control
IFN-γ [3]; [7]
  production of interferon-γ: inhibited
IFN-γ [3]; ADA 1 μg/ml
  IFN-γ in % relative to control: 73 % relative to control
IFN-γ [3]; ADA 5 μg/ml
  IFN-γ in % relative to control: 36 % relative to control
IFN-γ [3]; ADA 10 μg/ml
  IFN-γ in % relative to control: 15 % relative to control
IFN-γ [3]; ADA 20 μg/ml
  IFN-γ in % relative to control: 12 % relative to control
IL-2 [4]
  release of IL-2 into serum: significant reduction
IL-4
  release of IL-4 into serum: significant reduction
IFN-γ [5]
  production of INF-γ by splenocytes: inhibitory effect
[6]
  cytotoxic effects: no cytotoxic effects
